Measured values published in US20120014918A1, “ADDITION SALTS OF AMINES CONTAINING HYDROXYL AND/OR CARBOXYLIC GROUPS WITH AMINO NICOTINIC ACID DERIVATIVES AS DHODH INHIBITORS” (priority 2009, published 2012).
Structures can show the parent of a compound that is named as a salt.

Tests used:
Assay type in all cases: physicochemical
Water-solubility test = conditions: 25° C. (room temperature), expressed as acid
[1] = Differential scanning calorimetry (DSC) thermograms; conditions: heated 30 to 350° C. at 10° C./min
Method: The differential scanning calorimetry (DSC) thermograms analyses were obtained using a DSC-821 Mettler-Toledo instrument, serial number 5117423874. Samples were weighed into an aluminium pan, an aluminium lid placed on top of the sample and compressed with a brass rod. Samples were equilibrated at 30° C. and heated at 10° C./min to 350° C. The instrument was calibrated using indium and zinc standards.

[2] = Dynamic Vapour Sorption (DVS) profiles; conditions: 25° C.; for Hygroscopicity according to the DVS pattern: sorption 0 to 95% RH and desorption; for Hysteresis in the DVS pattern: sorption/desorption isotherms; for Mass increase at 80% relative humidity: 80% RH; for Mass increase at 90% relative humidity: 90% RH
Method: Dynamic Vapour Sorption (DVS) profiles were obtained using an Igasorp Hiden Isochema instrument (serial number IGA-SA-066). After an initial stabilization period, at least two isotherms (at 25° C.) were obtained for each sample: a moisture sorption from 0 to 95% relative humidity and moisture desorption from 95% relative humidity to dryness. Both isotherms were performed in 10% humidity steps, with a minimum time of 10 minutes and a maximum time of 30 minutes for each step.

SMILES	Water Solubility @ 25° C. (mg/mL as acid) (Water-solubility test)	Stability (no conversion into other polymorphs, no decomposition) from DSC thermogram [1]	Hygroscopicity according to the DVS pattern [2]	Hysteresis in the DVS pattern [2]	Mass increase at 80% relative humidity [2]	Mass increase at 90% relative humidity [2]
COc1cccc(-c2cc(F)c(Nc3ncccc3C(=O)O)c(F)c2)c1 [C1, 2-[(3,5-difluoro-3′-methoxy-1,1′-biphenyl-4-yl)amino]nicotinic acid, reference compound]	0.004 mg/mL					
CCOc1cccc(-c2ccc(Nc3ncccc3C(=O)O)c(OC(F)(F)F)c2)c1 [C2, 2-{[3′-ethoxy-3-(trifluoromethoxy)-1,1′-biphenyl-4-yl]amino}nicotinic acid, reference compound]	0.008 mg/mL					
Cc1c(-c2ccccc2)cc(F)c(Nc2ncccc2C(=O)O)c1F [C3, 2-[(3,5-difluoro-2-methyl-1,1′-biphenyl-4-yl)amino]nicotinic acid, reference compound]	0.002 mg/mL					
COc1cccc(-c2cc(F)c(Nc3ncccc3C(=O)O)c(F)c2)c1 [Ex. 1, 2-[(3,5-difluoro-3′-methoxy-1,1′-biphenyl-4-yl)amino]nicotinic acid, meglumine salt]	2.810 mg/mL	high stability	not hygroscopic	no hysteresis		
COc1cccc(-c2cc(F)c(Nc3ncccc3C(=O)O)c(F)c2)c1 [Ex. 2, 2-[(3,5-difluoro-3′-methoxy-1,1′-biphenyl-4-yl)amino]nicotinic acid, tromethamine salt]	0.870 mg/mL	high stability	not hygroscopic	no hysteresis		
CCOc1cccc(-c2ccc(Nc3ncccc3C(=O)O)c(OC(F)(F)F)c2)c1 [Ex. 3, 2-(3′-ethoxy-3-(trifluoromethoxy)biphenyl-4-ylamino)nicotinic acid, meglumine salt]	0.478 mg/mL	high stability	slightly hygroscopic	no hysteresis	2.7%	6.2%
Cc1c(-c2ccccc2)cc(F)c(Nc2ncccc2C(=O)O)c1F [Ex. 4, 2-(3,5-difluoro-2-methylbiphenyl-4-ylamino)nicotinic acid, meglumine salt]	0.210 mg/mL		not hygroscopic			
Cc1c(-c2ccccc2)cc(F)c(Nc2ncccc2C(=O)O)c1F [Ex. 5, 2-(3,5-difluoro-2-methylbiphenyl-4-ylamino)nicotinic acid, tromethamine salt]	0.490 mg/mL		a bit hygroscopic	without hysteresis	5.7%	14.9%
COc1cccc(-c2cc(F)c(Nc3ncccc3C(=O)O)c(F)c2)c1 [Ex. 6, 2-[(3,5-difluoro-3′-methoxy-1,1′-biphenyl-4-yl)amino]nicotinic acid, L-arginine salt]		high stability				
